Measurements taken from patent US20250136568A1, “FUSED HETEROCYCLIC COMPOUNDS AS PI3KALPHA INHIBITORS” (Nanjing Zenshine Pharmaceuticals Co., Ltd., priority 2021, published 2025).
Like-named read-outs stand apart in the source and are kept apart here.

Columns and labels:
Format in all cases: cell-based
[1] = tested on: PI3Kα wide type cell line SK-BR-3; assay: Cell Proliferation IC50 Assay (CellTiter-Glo), SK-BR-3; settings: Homo sapiens, read-out: IC50 (μM) SK-BR-3
From the text: (§1) PI3Kα H1047R mutation cell line T-47D and MDA-MB-453, E545K mutation cell line MDA-MB-361 and PI3Kα wide type cell line SK-BR-3 were purchased from Cobioer Biotech (cat. no CBP60397, CBP60386, CBP60383 and CBP60413 respectively). The CellTiter-Glo Direct Cell Proliferation Assay Kit was purchased from Prornega (cat. No. G7573)
(§2) For cell proliferation assay in each cell line: • a. Prepare complete medium (R PMI 1640, DMEM or McCoys): Add FBS and appropriate additives according to the information sheet provided by the vendor. Mix gently. • b. Prepare single cell suspension and count the cell numbers and adjust cells to appropriate density. • c. Add 80 μL of cell suspension to 96-well opaque-walled clear bottom plates according to the planned plate layout and place the plates in the CO2 incubator overnight. • d. Prepare intermediate plate: 10 μl of diluted test compounds or staurosporine solution (200×) is added to a 96 deep well plate. Then 390 μl of culture medium without FBS is added to the respective wells. • e. Transfer 20 μL of the solutions from the above intermediate plate to the wells of the plate prepared containing 80 μL of the culture medium and cells. The total dilution is 200 folds. • f. The cells were then incubated at 5% CO2, 37° C. for 72 hours. • g. Equilibrate the plate and its contents to room temperature for approximately 30 minutes. • h. Add 100 μL of CellTiter-Glo reagent to the assay plate • i. Mix contents for 10 minutes on an orbital shaker to induce cell lysis. • j. Allow the plate to incubate at room temperature for 10 minutes to stabilize luminescent signal, • k. Paste the clear bottom with white back seal and record luminescence with Varioskan LUX plate reader.
(§3) Inhibition % and IC50 value were calculated by the formula described below: […]

[2] = tested on: PI3Kα H1047R mutation cell line MDA-MB-453; assay: Cell Proliferation IC50 Assay (CellTiter-Glo), MDA-MB-453; settings: Homo sapiens; MDA-MB-453 (H1047R), 72 hours, CellTiter-Glo; read-out: IC50 (μM) MDA-MB-453
From the text: as §1, §2, §3

[3] = tested on: PI3Kα H1047R mutation cell line T-47D; assay: Cell Proliferation IC50 Assay (CellTiter-Glo), T-47D; settings: Homo sapiens, read-out: IC50 (μM) T47D
From the text: as §1, §2, §3

[4] = SK-BR-3 (PI3Kα wild type), 72 hours, CellTiter-Glo
[5] = T47D, 72 h, T47D (H1047R), 72 hours, CellTiter-Glo

Row | Compound | IC50 [1, 4] | IC50 [2] | IC50 [3, 5] | further results
1 | Cc1cc([C@H](C)Nc2ccccc2C(=O)O)c2oc(-c3ccc(N4CCOCC4)cc3)c(C)c(=O)c2c1 (single isomer, unassigned) [Example 53B] | > 10 µM | 2.34 µM |  | 
2 | CCN1Cc2cc(-c3cc(=O)c4cc(C)cc(C(C)Nc5ccccc5C(=O)O)c4o3)ccc2C1=O (centres unmarked) [Example 7, 2-((1-(2-(2-ethyl-1-oxoisoindolin-5-yl)-6-methyl-4-oxo-4H-chromen-8-yl)ethyl)amino)benzoic acid] | > 10 µM | 0.25 µM |  | 
3 | Cc1cc(C(C)Nc2ccccc2C(=O)O)c2oc(-c3ccc4c(c3)N(C)C(=O)C4)cc(=O)c2c1 (centres unmarked) [Example 21, 2-((1-(6-methyl-2-(1-methyl-2-oxoindolin-6-yl)-4-oxo-4H-chromen-8-yl)ethyl)amino)benzoic acid] | > 10 µM | > 10 µM |  | 
4 | Cc1cc(C(C)Nc2ccccc2C(=O)O)c2oc(-c3cccc4c3CN(C)C4=O)cc(=O)c2c1 (centres unmarked) [Example 24, 2-((1-(6-methyl-2-(2-methyl-1-oxoisoindolin-4-yl)-4-oxo-4H-chromen-8-yl)ethyl)amino)benzoic acid] | > 10 µM | 4.07 µM |  | 
5 | Cc1cc(C(C)Nc2ccccc2C(=O)O)c2oc(-c3cncs3)cc(=O)c2c1 (centres unmarked) [Example 27, 2-((1-(6-methyl-4-oxo-2-(thiazol-5-yl)-4H-chromen-8-yl)ethyl)amino)benzoic acid] | > 10 µM | 0.74 µM |  | 
6 | Cc1cc(C(C)Nc2ccccc2C(=O)O)c2oc(-c3ccc4c(c3)CN(C(C)C)C4=O)cc(=O)c2c1 (centres unmarked) [Example 44, -((1-(2-(2-isopropyl-1-oxoisoindolin-5-yl)-6-methyl-4-oxo-4H-chromen-8-yl)ethyl)amino)benzoic acid] | > 10 µM | 0.39 µM |  | 
7 | Cc1cc(C(C)Nc2ccccc2C(=O)O)c2oc(-c3ccc4c(c3)CN(C3COC3)C4=O)cc(=O)c2c1 (centres unmarked) [Example 45, 2-((1-(6-methyl-2-(2-(oxetan-3-yl)-1-oxoisoindolin-5-yl)-4-oxo-411-chromen-8-yl)ethyl)amino)benzoic acid] | > 10 µM | 0.97 µM |  | 
8 | Cc1cc(C(C)Nc2ccccc2C(=O)O)c2oc(-c3ccc4c(c3)CN(Cc3ccccc3)C4=O)cc(=O)c2c1 (centres unmarked) [Example 46, 2-((1-(2-(2-benzyl-1-oxoisoindolin-5-yl)-6-methyl-4-oxo-4H-chromen-8-yl)ethyl)amino)benzoic acid] | > 10 µM | 0.42 µM |  | 
9 | Cc1cc(C(C)Nc2ccccc2C(=O)O)c2oc(-c3ccc4c(c3)CCN(C)C4=O)cc(=O)c2c1 (centres unmarked) [Example 47, 2-((1-(6-methyl-2-(2-methyl-1-oxo-1,2,3,4-tetrahydroisoquinolin-6-yl)-4-oxo-4H-chromen-8-yl)ethyl)amino)benzoic acid] | > 10 µM | 0.24 µM |  | 
10 | Cc1cc(C(C)Nc2ccccc2C(=O)O)c2oc(-c3ccc(C(=O)N(C)C)c(C)c3)cc(=O)c2c1 (centres unmarked) [Example 48, 2-((1-(2-(4-(dimethylcarbamoyl)-3-methylphenyl)-6-methyl-4-oxo-4H-chromen-8-yl)ethyl)amino)benzoic acid] | > 10 µM | 0.76 µM |  | 
11 | Cc1cc(C(C)Nc2ccccc2C(=O)O)c2oc(-c3ccc(=O)n(C)c3)cc(=O)c2c1 (centres unmarked) [Example 50, 2-((1-(6-methyl-2-(1-methyl-6-oxo-1,6-dihydropyridin-3-yl)-4-oxo-4H-chromen-8-yl)ethyl)amino)benzoic acid] | > 10 µM | 6.39 µM |  | 
12 | Cc1cc(C(C)Nc2ccccc2C(=O)O)c2oc(-c3ccc4cn(C)nc4c3)cc(=O)c2c1 (centres unmarked) [Example 51, 2-((1-(6-methyl-2-(2-methyl-211-indazol-6-yl)-4-oxo-4H-chromen-8-yl)ethyl)amino)benzoic acid] | > 10 µM | 2.48 µM |  | 
13 | Cc1cc([C@@H](C)Nc2ccccc2C(=O)O)c2oc(-c3ccc(C4CN(C)CCO4)cc3)c(C)c(=O)c2c1 (stereo partly drawn) [Example 167, 2-(((1R)-1-(3,6-dimethyl-2-(4-(4-methylmorpholin-2-yl)phenyl)-4-oxo-4H-chromen-8-yl)ethyl)amino)benzoic acid] | 8.34 µM |  |  | IC50 ([3]; T47D (H1047R), 72 hours, CellTiter-Glo): 0.092 µM
14 | Cc1cc([C@@H](C)Nc2ccccc2C(=O)O)c2oc(-c3ccc(N4CCC[C@H](N(C)C)C4)cc3)c(C)c(=O)c2c1 [Example 168, 2-(((R)-1-(2-(4-((S)-3-(dimethylamino)piperidin-1-yl)phenyl)-3,6-dimethyl-4-oxo-41H-chromen-8-yl)ethyl)amino)benzoic acid] | > 10 µM |  | 0.092 µM | 
15 | Cc1cc([C@@H](C)Nc2ccccc2C(=O)O)c2oc(-c3ccc(N4CC[C@H](N(C)C)C4)cc3)c(C)c(=O)c2c1 [Example 169, 2-(((R)-1-(2-(4-((S)-3-(dimethylamino)pyrrolidin-1-yl)phenyl)-3,6-dimethyl-4-oxo-4H-chromen-8-yl)ethyl)amino)benzoic acid] | > 10 µM |  | 0.11 µM | 
16 | Cc1cc([C@@H](C)Nc2ccccc2C(=O)O)c2oc(-c3ccc(N4CC(N(C)C)C4)cc3)c(C)c(=O)c2c1 [Example 170, (R)-2-((1-(2-(4-(3-(dimethylamino)azetidin-1-yl)phenyl)-3,6-dimethyl-4-oxo-4H-chromen-8-yl)ethyl)amino)benzoic acid] | > 10 µM |  | 0.096 µM | 
17 | Cc1cc([C@@H](C)Nc2ccccc2C(=O)O)c2oc(-c3ccc(OC4CN(C)C4)cc3)c(C)c(=O)c2c1 [Example 171, (R)-2-((1-(3,6-dimethyl-2-(4-((1-methylazetidin-3-yl)oxy)phenyl)-4-oxo-4H-chromen-8-yl)ethyl)amino)benzoic acid] | > 10 µM |  | 0.072 µM | 
18 | Cc1cc(C(C)Nc2ccccc2P(=O)(O)O)c2oc(-c3ccc4nn(C)cc4c3)c(C)c(=O)c2c1 (centres unmarked) [Example 176] |  |  |  | IC50 ([1]; SK-BR-3, 72 h): > 10 µM; IC50 ([3]; T47D, 72 h): > 10 µM
19 | Cc1cc(C(C)Nc2ccccc2-c2nc(=O)o[nH]2)c2oc(-c3ccc4nn(C)cc4c3)c(C)c(=O)c2c1 (centres unmarked) [Example 177, 3-(2-((1-(3,6-dimethyl-2-(2-methyl-2H-indazol-5-yl)-4-oxo-4H-chromen-8-yl)ethyl)amino)phenyl)-1,2,4-oxadiazol-5(2H)-one] | > 10 µM |  | 0.31 µM | 
20 | Cc1cc([C@@H](C)Nc2ccc(Cl)nc2C(=O)O)c2oc(-c3ccc(-c4cnn(C)c4)nc3)c(C)c(=O)c2c1 [Example 186, (R)-6-chloro-3-((1-(3,6-dimethyl-2-(6-(1-methyl-1H-pyrazol-4-yl)pyridin-3-yl)-4-oxo-4H-chromen-8-yl)ethyl)amino)picolinic acid] | 8.68 µM |  | 0.16 µM | 
21 | Cc1cc([C@@H](C)Nc2ccccc2C(=O)O)c2oc(-c3ccc(CN4CCN(C)CC4)nc3)c(C)c(=O)c2c1 [Example 188, (R)-2-((1-(3,6-dimethyl-2-(6-((4-methylpiperazin-1-yl)methyl)pyridin-3-yl)-4-oxo-4H-chromen-8-yl)ethyl)amino)benzoic acid] | > 10 µM |  | 0.13 µM | 
22 | Cc1cc([C@@H](C)Nc2ccc(Cl)nc2C(=O)O)c2oc(-c3ccc(CN4CCN(C)CC4)cc3)c(C)c(=O)c2c1 [Example 189, (R)-6-chloro-3-((1-(3,6-dimethyl-2-(4-((4-methylpiperazin-1-yl)methyl)phenyl)-4-oxo-4H-chromen-8-yl)ethyl)amino)picolinic acid] | > 10 µM |  | 0.11 µM | 
23 | COC(=O)c1ccccc1N[C@H](C)c1cc(C)cc2c(=O)c(C)c(-c3ccc(-c4cnn(C)c4)nc3)oc12 [Example 190, methyl (R)-2-((1-(3,6-dimethyl-2-(6-(1-methyl-1H-pyrazol-4-yl)pyridin-3-yl)-4-oxo-4H-chromen-8-yl)ethyl)amino)benzoate] | 6.05 µM |  | 0.27 µM | 
24 | CNC(=O)c1ccccc1N[C@H](C)c1cc(C)cc2c(=O)c(C)c(-c3ccc(-c4cnn(C)c4)nc3)oc12 [Example 191, (R)-2-((1-(3,6-dimethyl-2-(6-(1-methyl-1H-pyrazol-4-yl)pyridin-3-yl)-4-oxo-4H-chromen-8-yl)ethyl)amino)-N-methylbenzamide] | 2.02 µM |  | 0.27 µM | 
25 | Cc1cc([C@@H](C)Nc2ccccc2C(=O)O)c2oc(-c3ccc(OCCN(C)C)nc3)c(C)c(=O)c2c1 [Example 192, (R)-2-((1-(2-(6-(2-(dimethylamino)ethoxy)pyridin-3-yl)-3,6-dimethyl-4-oxo-4H-chromen-8-yl)ethyl)amino)benzoic acid] | > 10 µM |  | 0.1 µM | 
